Laboratory results taken from article PMC7738508, “A therapeutic combination of two small molecule toxin inhibitors provides broad preclinical efficacy against viper snakebite” (Nature Communications, 2020).
Several values for one entry are separate records, joined by “and”; a condition that tells them apart may be missing. Equal entries are not always repeated.

How the values were obtained:
[1] = tested on: procoagulant activity of Echis carinatus venom (citrated bovine plasma); assay: plasma clotting assay; assay type: biochemical; set-up: key: max of first derivative of A595 clot curve (max clotting velocity); conditions: Echis carinatus venom 100 ng, independent repeats
Method: (§1) We used a previously developed plasma clotting assay[35] to measure venom-induced coagulation. Briefly, 100 ng of each venom was incubated at 37 °C for 30 min in the presence or absence of inhibitors (150 µM to 150 nM final concentrations). The final reaction consisted of 10 µl venom ± inhibitors in PBS, 20 µl 20 mM CaCl2, and 20 µl citrated bovine plasma (VWR). The samples were pipetted in triplicate into 384-well plates, and absorbance monitored at 595 nm for 2 h at 25 °C on an Omega FLUOstar instrument. We calculated the maximum clotting velocity of each of the curves as per clot waveform analysis, by calculating the maximum of the first derivative. The means of at least three independent experimental runs for each condition were plotted at each inhibitor concentration with SEMs.

[2] = assay type: in vivo, CD-1 mice; conditions: no venom; 60 µg of each drug, i.v.; listed as M
Method: All experimental animals (18–20 g [4–5 weeks old], male, CD-1 mice, Charles River, UK) were housed in groups of five with environmental enrichment, water and food ad libitum and their health monitored daily during acclimatization. The experimental design was based upon 3R-refined WHO-recommended protocols[28],[41], with animals randomized and observers being blinded to the experimental condition.
All experimental doses were prepared to a volume of 200 µl in PBS and incubated at 37 °C for 30 min prior to their intravenous injection via the tail vein. Animals were monitored for 6 h, and euthanized via rising concentrations of CO2 upon observation of previously defined humane end points that are predicators of lethality (e.g., seizure, pulmonary distress, paralysis, hemorrhage)[28]. Deaths, time of death, and survivors were recorded; where death/time of death actually represents the implementation of euthanasia based on defined humane end points.
For all experimental animals described above, blood samples were collected via cardiac puncture immediately post-euthanasia. Plasma was separated by centrifugation at 400 × g for 10 min and stored at −80 °C. We assessed the levels of thrombin-antithrombin complexes (TAT) and soluble thrombomodulin using mouse ELISA Kits (ab137994 and ab209880, Abcam), following the manufacturer’s protocol. […] The resulting data was plotted as the median of duplicate measurements for each animal and is presented with standard deviations (SDs).

[3] = tested on: pro- and anticoagulant fractions of D. russelii venom; assay: nanofractionation with plasma coagulation assay; assay type: biochemical, Daboia russelii; conditions: nanofractionated D. russelii venom; inhibitor 0.0064 to 20 µM
Method: Fifty microlitres of venom solution (D. russelii; 1 mg/ml) was injected into a Shimadzu LC-2010 system with nanofractionation in parallel. Separation was performed on a Waters XBridge reversed-phase C18 column (250 × 4.6 mm^2 column with 3.5 μm pore-size) at 30 °C. The total flow rate of the mobile phase solution was 0.5 ml/min with eluent A (98% H2O, 2% acetonitrile [ACN], 0.1% formic acid [FA]) and eluent B (98% ACN, 2% H2O, 0.1% FA). Liquid chromatography gradients consisted of a linear increase of mobile phase B from 0 to 50% in 20 min, followed by a linear increase to 90% B in 4 min, then isocratic at 90% B for 5 min, after which the percentage of mobile phase B was decreased from 90 to 0% in 1 min, followed by 10 min at 0% B to re-equilibrate. The effluent was split in a 1:9 ratio of which the 10% fraction was sent to a Shimadzu SPD-M20A prominence diode array detector and the 90% fraction was directed to a nanofractionation collector which dispensed the fractions into transparent 384-well plates (F-bottom, rounded square well, polystyrene, without lid, clear, non-sterile; Greiner Bio One, Alphen aan den Rijn, The Netherlands) at a resolution of 6 s/well. The collector used was either a commercially available FractioMate^TM nanofractionator (SPARK-Holland & VU, Netherlands, Emmen & Amsterdam) controlled by FractioMator software v1.0 (Spark-Holland, The Netherlands, Emmen) or a modified Gilson 235P autosampler controlled by in-house written software Ariadne v1.8 (VU Amsterdam). The well plates with venom fractions were then dried overnight in a Christ Rotational Vacuum Concentrator (RVC 2 − 33 CD plus, Zalm en Kipp, Breukelen, The Netherlands) equipped with a cooling trap, and maintained at −80 °C during operation. The freeze-dried plates were then stored at −80 °C prior to bioassaying.
The final assay concentrations of the inhibitors tested in the assay were 20, 4, 0.8, 0.16, 0.032, and 0.0064 µM. The plates were then incubated for 30 min at room temperature, and during this time bovine plasma (Sterile Filtered, Biowest, Nuaille, France) was defrosted in a water bath and centrifuged for 4 min at 805 × g prior to use. […] The plate was then read immediately for absorbance kinetically for 100 min at 595 nm at 25 °C using a Varioskan Flash Multimode Reader (Thermo Fisher Scientific, Ermelo, The Netherlands). The obtained results were normalized by dividing the slope measured in each well by the median of all slope values across the plate, and the processed coagulation chromatograms were plotted to visualize very fast coagulation, medium increased coagulation and anticoagulation, as previously described.

[4] = tested on: procoagulant activity of viper venoms (citrated bovine plasma); assay: plasma clotting assay, viper venoms overall; assay type: biochemical; conditions: range across all venoms; lower end of dimercaprol and marimastat ranges given as < 0.15; read-out: IC50, inhibition of procoagulant venom activity
Method: as §1

SMILES: CNC(=O)[C@@H](NC(=O)[C@H](CC(C)C)[C@H](O)C(=O)NO)C(C)(C)C [marimastat]
- maximum clotting velocity ([1]; inhibitor 15 µM): 0.03177 and 0.03235
- maximum clotting velocity ([1]; inhibitor 150 µM): 0.03353 and 0.03265 and 0.02823
- thrombin-antithrombin (TAT) levels, drug-only control animals [2]: 16.1111 ng/mL and 15.7371 ng/mL and 12.5653 ng/mL
- inhibition of anticoagulant venom fractions [3]: not neutralized
- inhibition of procoagulant venom fractions [3]: effectively inhibited in a dose-dependent manner
- IC50 [4]: 150 to 1920 nM
